Columns and labels:
[1] = test system: rat model for lower back pain (L5 spinal root loosely ligated with chromic gut); test: Gait disturbance and hind paw inversion testing after L5 spinal root injury; type: in vivo; settings: phase I
Source text: The first phase of the study investigated three combinations of treatments: 1) Group A—methotrexate administration locally (intrathecally) to the surgical area immediately following surgery, followed by additional methotrexate administration locally at days 2 and 4 post-surgery; 2) Group B—saline administration locally to the surgical area immediately following surgery and at days 2 and 4 post-surgery; and 3) Group C—sham-operated animals that received methotrexate at the same time points. In all animals, gait disturbance and mechanical allodynia were assessed until animals were euthanized 7 days after surgery. […]
(§1) Male Holtzman rats (200-250 g) were used. All surgical procedures were performed under inhalation anesthesia (induced at 4% and maintained at 2% halothane in 100% O2). Spinal root, dorsal root ganglia, and the adjacent dura mater on the left side at L5 were carefully exposed by hemilaminectomy using a surgical microscope. Five 0.3 cm pieces of 4-0 chromic gut ligature were laid adjacent to the root and secured by two loose ligatures of 5-0 chromic gut. The muscle layers and incision were closed with 3-0 silk suture and staples, respectively.
For phase I, three combinations of treatments were investigated. Methotrexate was reconstituted to 10 mg/ml in saline and pH adjusted to 7.4. Group A represented root injury plus methotrexate treatment. […]

[2] = test system: OX-42 and GFAP (glial fibrillary acidic protein); test: Immunohistochemical analysis of spinal glial activation; type: in vivo, rat; settings: methotrexate-treated groups vs saline-treated groups; L5 spinal cord sections
Experimental: All animals were perfusion fixed for immunohistochemistry. Under deep anesthesia (sodium pentobarbital, 50 mg/kg intraperitoneally) rats were euthanized by transcardiac perfusion. Rats were then perfused with 300 ml phosphate buffered saline (PBS) followed by 500 ml 4% paraformaldehyde in 0.1 M PBS. Following perfusion and laminectomy, the lesioned L5 roots were verified and traced to their site of entry into the spinal cord. Appropriate L5 spinal cord segments were harvested and post fixed for 4 hours in fixative and then cryoprotected 2-3 days in 30% sucrose/PBS at 4° C. The segments were then freeze-mounted in OCT embedding medium on cork blocks for cryostat sectioning.
Optimal dilutions and incubation time periods for each antibody and lot were determined prior to the study. Immunohistochemistry was performed with the avidin-biotin technique on free-floating 20 μm sections. Elimination of the primary antibody was performed in each run as a negative control. Monoclonal antibody OX-42 (labeling the complement receptor-3, CDllb) was used as a microglial marker at a dilution of […]. A rabbit polyclonal antibody to glial fibrillary protein (anti-GFAP, DAKO, Carpintra, Calif.) was used as an astrocytic marker at a dilution of 1:20,000. Five or more sections per animal were prepared from the L5 segments in each run. […]

[3] = test system: rat model for lower back pain (L5 spinal root loosely ligated with chromic gut); test: Mechanical sensitivity (allodynia) testing with von Frey filaments after L5 spinal root injury; type: in vivo
Source text: The first phase of the study investigated three combinations of treatments: 1) Group A—methotrexate administration locally (intrathecally) to the surgical area immediately following surgery, followed by additional methotrexate administration locally at days 2 and 4 post-surgery; 2) Group B—saline administration locally to the surgical area immediately following surgery and at days 2 and 4 post-surgery; and 3) Group C—sham-operated animals that received methotrexate at the same time points. In all animals, gait disturbance and mechanical allodynia were assessed until animals were euthanized 7 days after surgery.
In the second phase of the study, animals were assessed out to day 14 post-surgery and given additional treatments as follows: 1) Group D—surgically prepared, saline treated rats were then given methotrexate locally during the second week of the study on days 7, 9, and 11 post-surgery; 2) Group E—surgically prepared, saline treated rats were then given saline locally during the second week on days 7, 9, and 11 post-surgery; and 3) Group F—surgically prepared, methotrexate treated rats were then given saline during the second week on days 7, 9, and 11 post-surgery. Gait disturbance and mechanical allodynia were assessed before surgery and at days 2, 4, 7, 9, 11, and 14 until euthanization.
as §1
For phase I, three combinations of treatments were investigated. Methotrexate was reconstituted to 10 mg/ml in saline and pH adjusted to 7.4. Group A represented root injury plus methotrexate treatment. Immediately following surgery and prior to incision closure, Group A rats received 1 mg/kg of methotrexate (volume 100 ul/kg) by injecting through a PE-10 catheter through an incision in the exposed dura mater to a position 3 cm central to the incision. The PE-10 catheter was pulled out and the same dose and volume of methotrexate (1 mg/kg) was administered around the injured nerve roots (total dose 2 mg/kg). The wound was closed. On days 2 and 4 post-surgery, under inhalation anesthesia, methotrexate was again administered by opening the surgical wound and repeating delivery of methotrexate as before.
Group C animals represented sham-operated plus methotrexate treatment. In these animals, the L5 nerve roots were exposed but not injured. Methotrexate was administered using the same dose, protocol, and time points as Group A.
For phase II of the study, the protocol was extended to day 14 with the surgery, delivery method, volume and doses being identical to those of the phase I study. Rats were divided into 3 groups. Group D represented saline plus methotrexate treatment. Saline was administered at the time of surgery and at days 2 and 4 post-surgery. Methotrexate was administered in the second week at days 7, 9 and 11 post-surgery.
Group F represented methotrexate plus saline treatment. In these rats, methotrexate was administered during surgery and at days 2 and 4 post-surgery. Saline was then administered on days 7, 9, and 11 post-surgery. Gait disturbance and mechanical allodynia were also assessed in these animals at days 2, 4, 7, 9, 11 and 14 (day of euthanization).
Animals were tested for 3 days pre-operatively to acclimate to the testing apparatus and the experimenter, and to obtain baseline values. All testing was performed by experimenters blinded to the treatments.

[4] = dose without acute neurotoxic effects; Morris et al. 1992; cited from earlier work
[5] = test system: rat model for lower back pain (L5 spinal root loosely ligated with chromic gut); test: Gross pathological inspection of injured nerve roots following euthanasia; type: in vivo; settings: methotrexate-treated groups (A, D and F) compared to saline-treated groups (B and E)
Experimental: In all groups except the sham-operated animals (Group C), the treated nerve roots were encapsulated with dense granulation tissue and fibrous adhesions.
as §1
For phase I, three combinations of treatments were investigated. Methotrexate was reconstituted to 10 mg/ml in saline and pH adjusted to 7.4. Group A represented root injury plus methotrexate treatment. Immediately following surgery and prior to incision closure, Group A rats received 1 mg/kg of methotrexate (volume 100 ul/kg) by injecting through a PE-10 catheter through an incision in the exposed dura mater to a position 3 cm central to the incision. […]
Group F represented methotrexate plus saline treatment. […] Gait disturbance and mechanical allodynia were also assessed in these animals at days 2, 4, 7, 9, 11 and 14 (day of euthanization).

With `CN(Cc1cnc2nc(N)nc(N)c2n1)c1ccc(C(=O)N[C@@H](CCC(=O)O)C(=O)O)cc1` [methotrexate, Methotrexate] the “postoperative changes in hind paw inversion or gait disturbance” value ([1]; Group A (injury+methotrexate, 1 mg/kg intrathecal + 1 mg/kg perineural at surgery, days 2 and 4) vs Group B (saline)) was “no significant difference”, the “hind paw inversion or gait disturbance” value ([1]; Group C, sham-operated + methotrexate at surgery, days 2 and 4) was “did not demonstrate any hind paw inversion or gait disturbance” and the “level of glial activation (OX-42, GFAP)” value [2] was “significant difference”. The “mechanical allodynia, overall conclusion” value ([3]; lower back pain model with radiculopathy, local administration) was “significantly attenuates”, the mechanical allodynia ([3]; phase I, Group A (injury+methotrexate at surgery, days 2 and 4), toward baseline after peak at day 2, to day 7) was “significantly reduced” and the “mechanical allodynia response after surgery” value ([3]; phase I, Group C (sham-operated+methotrexate)) was “minimal (minimal (0-5))”. For the same compound, the “mechanical allodynia during the second week” value ([3]; phase II, Group D (saline in week 1, methotrexate on days 7, 9, 11), existing allodynia, Group E (saline) persisted) was “significantly decreased”, the “allodynia at day 7 post-surgery” value ([3]; phase II, Group F (methotrexate at surgery, days 2 and 4) compared to Groups D and E) was “significantly attenuated” and the “allodynic response during the second week” value ([3]; phase II, Group F compared to Group E) was “significantly lower”. For the same compound, the “administered dose (1 mg/kg) as fraction of the maximally tolerated dose for rats” value [4] was “one quarter” and the “granulation and adhesion around the injured nerve roots” value [5] was “markedly decreased”.
